Source: ChEMBL document CHEMBL5120920, “A Mitochondria-Targeted Phenylbutyric Acid Prodrug Confers Drastically Improved Anticancer Activities” (J Med Chem, 2022)
Activity calls are given as the source filed them. The rule behind the calls is not given here.

Columns and labels:
[1] = tested on: A-375; test: Antitumor activity against human A-375 cells xenografted in nude mouse assessed as tumor inhibition ratio at 40 mg/kg, ip measured once every two days for 14 days; assay type: functional; conditions: A-375, 336 h, time 14 day, read-out: TGI
[2] = tested on: A-375; test: Inhibition of colony formation in human A-375 cells preincubated for 72 hrs followed by drug free medium addition for 10 to 14 days by crystal violet staining based analysis; assay type: functional, cell-based; conditions: dose 0.5-1 µM, DDE = dose-dependent effect
[3] = target: Histone deacetylase (Homo sapiens) (UniProt Q13547+O15379+Q9UBN7+Q92769+Q9UQL6+Q8WUI4+Q9BY41+Q96DB2+P56524+Q9UKV0+Q969S8); test: Inhibition of HDAC in human A-375 cells assessed as upregulation of alpha-tubulin acetylation at 5 to 20 uM measured after 24 hrs; assay type: cell-based; conditions: dose 5-20 µM
[4] = Drug uptake in human A-375 cells measured at 10 mins by RP-HPLC-UV analysis; assay type: ADME, cell-based; conditions: a-375, 10 min
[5] = Drug uptake in human A-375 cells mitochondria assessed as fold increase at 10 uM measured after 4 hrs relative to PBA; assay type: ADME; conditions: a-375, 4 h
[6] = tested on: A549; test: Induction of mitochondrial membrane hyperpolarization in human A549 cells assessed as JC-1 level at 2.5 to 10 uM incubated for 4 hrs by JC-1 staining based flow cytometry analysis relative to control; assay type: functional; conditions: dose 2.5-10 µM
[7] = tested on: A-375; test: Induction of cell cycle arrest in human A-375 cells assessed as accumulation at G2 phase at 7.5 uM incubated for 24 hrs by PI staining based flow cytometry analysis (reference value: 7.92 %); assay type: functional
[8] = tested on: A-375; test: Antitumor activity against human A-375 cells implanted in BALB/c mouse assessed as tumor growth inhibition at 40 mg/kg, ip measured once every two days for 14 days; assay type: functional, organism-based; conditions: time 14.0 day
[9] = tested on: A-375; test: Cytotoxicity against human A-375 cells assessed as reduction in cell vaibility measured at 72 hrs in presence of BNPP by MTT assay; assay type: functional, cell-based; conditions: A-375, 72 h
[10] = tested on: A-375; test: Induction of mitochondrial membrane depolarization in human A-375 cells assessed as reduction in red fluorescence intensity incubated for 4 hrs by TMRM staining based fluorescence microscopy analysis; assay type: functional, cell-based; conditions: dose 2.5-10 µM, DDE = dose-dependent effect
[11] = tested on: A-375; test: Inhibition of glycolysis in human A-375 cells assessed as reduction in lactate formation at 0.25 to 5 uM incubated for 8 hrs; assay type: functional, cell-based; conditions: dose 0.25-5 µM
[12] = tested on: A-375; test: Induction of cell cycle arrest in human A-375 cells assessed as accumulation at S phase at 5 uM incubated for 24 hrs by PI staining based flow cytometry analysis (reference value: 24.01 %); assay type: functional
[13] = tested on: MCF7; test: Induction of mitochondrial membrane hyperpolarization in human MCF7 cells assessed as JC-1 level at 2.5 to 10 uM incubated for 4 hrs by JC-1 staining based flow cytometry analysis relative to control; assay type: functional; conditions: dose 2.5-10 µM
[14] = tested on: A-375; test: Induction of cell cycle arrest in human A-375 cells assessed as accumulation at G1 phase at 2.5 uM incubated for 24 hrs by PI staining based flow cytometry analysis (reference value: 68.07 %); assay type: functional
[15] = tested on: A-375; test: Induction of mitochondrial membrane hyperpolarization in human A-375 cells assessed as JC-1 level at 2.5 to 10 uM incubated for 4 hrs by JC-1 staining based flow cytometry analysis relative to control; assay type: functional; conditions: dose 2.5-10 µM
[16] = tested on: A-375; test: Induction of cell cycle arrest in human A-375 cells assessed as accumulation at S phase at 2.5 uM incubated for 24 hrs by PI staining based flow cytometry analysis (reference value: 24.01 %); assay type: functional
[17] = tested on: A-375; test: Cytotoxicity against human A-375 cells assessed as reduction in cell vaibility measured at 24 hrs in presence of BNPP by MTT assay; assay type: functional, cell-based; conditions: A-375, 24 h
[18] = tested on: L02; test: Induction of mitochondrial membrane hyperpolarization in human L02 cells assessed as JC-1 level at 2.5 to 10 uM incubated for 4 hrs by JC-1 staining based flow cytometry analysis relative to control; assay type: functional; conditions: dose 2.5-10 µM
[19] = tested on: A-375; test: Induction of apoptosis in human A-375 cells assessed as apoptotic cells at 10 uM measured at 72 hrs by Annexin V FITC/PI staining based flow cytometry analysis relative to control; assay type: functional
[20] = Toxicity in BALB/c mouse assessed as histopathological changes in kidney at 50 to 100 mg/kg, iv measured after 7 days by H and E staining based assay; assay type: organism-based; conditions: in vivo, 168 h, dose 50-100 mg/kg, time 7 day
[21] = Toxicity in BALB/c mouse assessed as histopathological changes in spleen at 50 to 100 mg/kg, iv measured after 7 days by H and E staining based assay; assay type: organism-based; conditions: in vivo, 168 h, dose 50-100 mg/kg, time 7 day
[22] = tested on: A-375; test: Antitumor activity against human A-375 cells xenografted in nude mouse assessed as induction of apoptosis by measuring morphological changes at 40 mg/kg, ip measured once every two days for 14 days by TUNEL assay; assay type: functional, organism-based; conditions: time 14.0 day
[23] = tested on: A-375; test: Antitumor activity against human A-375 cells xenografted in nude mouse assessed as tumor growth inhibition at 10 to 40 mg/kg, ip and measured once every two days for 14 days; assay type: functional, organism-based; conditions: dose 10-40 mg/kg, time 14.0 day
[24] = tested on: A-375; test: Cytotoxicity against human A-375 cells assessed as reduction in cell vaibility measured at 48 hrs in absence of BNPP by MTT assay; assay type: functional, cell-based; conditions: A-375, 48 h
[25] = tested on: A-375; test: Antitumor activity against human A-375 cells xenografted in nude mouse assessed as shrinkage of tumor tissue at 10 to 40 mg/kg, ip measured once every two days for 14 days; assay type: functional, organism-based; conditions: dose 10-40 mg/kg, time 14.0 day
[26] = tested on: A-375; test: Induction of apoptosis in human A-375 cells assessed as apoptotic cells at 10 uM measured at 24 hrs by Annexin V FITC/PI staining based flow cytometry analysis relative to control; assay type: functional
[27] = tested on: A-375; test: Induction of apoptosis in human A-375 cells assessed as apoptotic cells at 5 uM measured after 48 hrs by Annexin V FITC/PI staining based flow cytometry analysis relative to control; assay type: functional
[28] = Toxicity in BALB/c mouse assessed as histopathological changes in heart at 50 to 100 mg/kg, iv measured after 7 days by H and E staining based assay; assay type: organism-based; conditions: in vivo, 168 h, dose 50-100 mg/kg, time 7 day
[29] = tested on: A549; test: Antiproliferative activity against human A549 cells assessed as inhibition of cell viability incubated for 72 hrs by MTT assay; assay type: functional, cell-based; conditions: A549, 72 h
[30] = tested on: MDA-MB-231; test: Induction of mitochondrial membrane hyperpolarization in human MDA-MB-231 cells assessed as JC-1 level at 2.5 to 10 uM incubated for 4 hrs by JC-1 staining based flow cytometry analysis relative to control; assay type: functional; conditions: dose 2.5-10 µM
[31] = tested on: A-375; test: Inhibition of glycolysis in human A-375 cells assessed as reduction in extracellular acidification rate at 0.25 to 5 uM measured after 4 hrs; assay type: functional, cell-based; conditions: dose 0.25-5 µM
[32] = Stability of the compound assessed as Carboxylesterase (unknown origin) mediated compound hydrolysis measured upto 150 mins by RP-HPLC-UV analysis; assay type: ADME; conditions: human, 2.5 h
[33] = tested on: A-375; test: Induction of cell cycle arrest in human A-375 cells assessed as accumulation at S phase at 7.5 uM incubated for 24 hrs by PI staining based flow cytometry analysis (reference value: 24.01 %); assay type: functional
[34] = Stability of the compound in Tris-HCL buffer at pH 7.4 measured for 24 hrs by RP-HPLC-UV analysis; assay type: physicochemical; conditions: pH 7.4, 24 h

## O=C(CCCCCCCCC[P+](c1ccc(C(F)(F)F)cc1)(c1ccc(C(F)(F)F)cc1)c1ccc(C(F)(F)F)cc1)NC(COC(=O)CCCc1ccccc1)(COC(=O)CCCc1ccccc1)COC(=O)CCCc1ccccc1.[Br-]
[1]
  inhibition in vivo at 40 mg/kg: 76%
[2]
  inhibition: Dde
[3]
  inhibition: Active
[4]
  Drug uptake: Active
[5]
  Drug uptake: Active
[6]
  Activity: 5.01%
[7]
  Activity: 7.88%
[8]
  Activity: Active
[9]
  IC50: 14.1 µM
[10]
  Activity: Dde
[11]
  inhibition: Active
[12]
  Activity: 15.46%
[13]
  Activity: 3.6%
[14]
  Activity: 74.71%
[15]
  Activity: 2.22%
[16]
  Activity: 16.71%
[17]
  IC50: 28.4 µM
[18]
  Activity: 11.49%
[19]
  Activity: 77%
[20]
  Activity: Non-Toxic
[21]
  Activity: Non-Toxic
[22]
  Activity: Active
[23]
  Activity: Active
[24]
  IC50: 3.34 µM
[25]
  Activity: Active
[26]
  Activity: 7%
[27]
  Activity: 12%
[28]
  Activity: Non-Toxic
[29]
  IC50: 4.72 µM
[30]
  Activity: 3.27%
[31]
  inhibition: Active
[32]
  Stability: Unstable
[33]
  Activity: 11.75%
[34]
  Stability: Stable
